Like-named read-outs stand apart in the source and are kept apart here.
Biological target: Syk (Homo sapiens, UniProt P43405)
Assay: High Throughput Syk Biochemical Assay (KinEASE TR-FRET)
Conditions: 20 μM ATP, 1 μM biotinylated peptide, 0.015 nM Syk, 30 min at room temperature
Method in brief: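 Two-step endpoint TR-FRET (KinEASE) measured Syk phosphorylation of an XL665-labelled peptide, detected with europium anti-phosphotyrosine antibody. Compounds were serially diluted in DMSO.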

[1] = table 'ALL NEW COMPOUNDS IN 2014', read-out: Syk IC50

| Structure (SMILES) | IC50 [1] | IC50 (TABLE D, read-out: IC50) |
| --- | --- | --- |
| C[C@@H](Oc1nc(-c2cnc(C3CCOCC3)s2)cc2ncn(C3CC3)c12)[C@H]1CNC(=O)C1 [(R)-4-((R)-1-((3-cyclopropyl-6-(2-(tetrahydro-2H-pyran-4-yl)thiazol-5-yl)-3H-imidazo[4,5-c]pyridin-4-yl)oxy)ethyl)pyrrolidin-2-one] | 3.54 nM | – |
| C[C@@H](Oc1nc(-c2ccc(N3CCn4cnnc4C3)cc2)cc2ncn(C3CC3)c12)[C@H]1CNC(=O)C1 [(R)-4-((R)-1-((3-cyclopropyl-6-(4-(5,6-dihydro-[1,2,4]triazolo[4,3-a]pyrazin-7(8H)-yl)phenyl)-3H-imidazo[4,5-c]pyridin-4-yl)oxy)ethyl)pyrrolidin-2-one] | 1.3 nM | – |
| C[C@@H](Oc1nc(-c2ccc(N3CCN(C4COC4)CC3)c(Cl)c2)cc2ncn(C3CC3)c12)[C@H]1CNC(=O)C1 [(R)-4-((R)-1-((6-(3-chloro-4-(4-(oxetan-3-yl)piperazin-1-yl)phenyl)-3-cyclopropyl-3H-imidazo[4,5-c]pyridin-4-yl)oxy)ethyl)pyrrolidin-2-one] | 2.76 nM | – |
| COc1ccc(-c2cc3nc(C)n(C(C)C)c3c(O[C@H](C)[C@H]3CNC(=O)C3)n2)cc1OC [(R)-4-((R)-1-(6-(3,4-dimethoxyphenyl)-3-isopropyl-2-methyl-3H-imidazo[4,5-c]pyridin-4-yloxy)ethyl)pyrrolidin-2-one] | – | 317 nM |
| C[C@@H](Oc1nc(-c2ccc(N3CCN(C4COC4)CC3)nc2)cc2ncn(C(F)F)c12)[C@H]1CNC(=O)C1 [(R)-4-((R)-1-((3-(difluoromethyl)-6-(6-(4-(oxetan-3-yl)piperazin-1-yl)pyridin-3-yl)-3H-imidazo[4,5-c]pyridin-4-yl)oxy)ethyl)pyrrolidin-2-one] | 2.9 nM | – |
| C[C@@H](Oc1nc(-c2ccc(N3CCN(C4COC4)CC3)c(F)c2)cc2ncn(C3CC3)c12)[C@H]1CNC(=O)C1 [(R)-4-((R)-1-((3-cyclopropyl-6-(3-fluoro-4-(4-(oxetan-3-yl)piperazin-1-yl)phenyl)-3H-imidazo[4,5-c]pyridin-4-yl)oxy)ethyl)pyrrolidin-2-one] | 2.37 nM | – |
| COc1ccc(-c2cc(O[C@H](C)[C@H]3CNC(=O)C3)c3ccnn3c2)nc1OC [(R)-4-((R)-1-((6-(5,6-dimethoxypyridin-2-yl)pyrazolo[1,5-a]pyridin-4-yl)oxy)ethyl)pyrrolidin-2-one] | – | 4.84 nM |
| COc1ccc(-c2cc(O[C@H](C)[C@H]3CNC(=O)C3)c3scnc3c2)cc1OC (stereo in doubt) [(R)-4-((R)-1-((5-(3,4-dimethoxyphenyl)benzo[d]thiazol-7-yl)oxy)ethyl)pyrrolidin-2-one] | – | 5 nM |

The next lines start with the values.

| IC50 [1] | IC50 (TABLE D, read-out: IC50) | Structure (SMILES) |
| --- | --- | --- |
| 2.92 nM | – | CCOc1cc(-c2cc3ncn(C4CC4)c3c(O[C@H](C)[C@H]3CNC(=O)C3)n2)ccc1OC [(R)-4-((R)-1-((3-cyclopropyl-6-(3-ethoxy-4-methoxyphenyl)-3H-imidazo[4,5-c]pyridin-4-yl)oxy)ethyl)pyrrolidin-2-one] |
| 4.84 nM | – | C[C@@H](Oc1nc(-c2ccc3c(c2)n(C)c(=O)n3C)cc2ncn(C3CC3)c12)[C@H]1CNC(=O)C1 |
| – | 102 nM | C[C@@H](Oc1nc(-c2cccc(N3CCOCC3)c2)cc2ncn(C)c12)[C@H]1CNC(=O)C1 [(R)-4-((R)-1-(3-methyl-6-(3-morpholinophenyl)-3H-imidazo[4,5-c]pyridin-4-yloxy)ethyl)pyrrolidin-2-one] |
| 8.38 nM | – | COc1cc(-c2cc3ncn(C4CC4)c3c(O[C@H](C)[C@H]3CNC(=O)C3)n2)cnc1OC [(R)-4-((R)-1-((3-cyclopropyl-6-(5,6-dimethoxypyridin-3-yl)-3H-imidazo[4,5-c]pyridin-4-yl)oxy)ethyl)pyrrolidin-2-one] |
| – | 20.8 nM | C[C@@H](Oc1nc(-c2cnn(CC(F)(F)F)c2)cc2ncn(C)c12)[C@H]1CNC(=O)C1 [(R)-4-((R)-1-(3-methyl-6-(1-(2,2,2-trifluoroethyl)-1H-pyrazol-4-yl)-3H-imidazo[4,5-c]pyridin-4-yloxy)ethyl)pyrrolidin-2-one] |

Source: patent US10005774B2, “Syk inhibitors” (Gilead Sciences, Inc., priority 2013, dated 2018)
